The subject of this data set is acetaminophen-induced hepatotoxicity. Particulars: for Prothrombin time (indicator of hepatic function): FIG. 17. The protocol: Group 1: Untreated control (4 mice in this group only)
Group 2: 3 mg/kg of acetaminophen administered orally on the 7th day from the start of the test
Group 3: 1 mL of the blank micelles (6.25 mg/mL, 160 mg/kg) synthesized in Example 21 forcibly administered once per day via a feeding tube, 3 m g/kg of acetaminophen administered orally on the 7th day from the start of the test.
Group 5: 170 mg/kg of 4-amino-TEMPO forcibly administered once per day via a feeding tube, 3 mg/kg of acetaminophen administered orally on the 7th day from the start of the test.
Group 6: 600 mg/kg of acetylcysteine forcibly administered once per day via a feeding tube, 3 mg/kg of acetaminophen administered orally on the 7th day from the start of the test.

[1] abbreviates: 6 mice before test, substance once per day by feeding tube (newRNP^N Example 16, m=13, 160 mg/kg; 4-amino-TEMPO 170 mg/kg; acetylcysteine 600 mg/kg), 3 mg/kg acetaminophen orally on 7th day.
The mark [2] stands for this setting: oral once per day, 3 mg/kg acetaminophen on 7th day, newRNP^N m=13.

Like-named read-outs stand apart in the source and are kept apart here.

Consider `CC1(C)CC(N)CC(C)(C)N1[O]` [4-amino-TEMPO], for which, under setting [1], the “Numbers of mice alive, After test” value worked out at 2. Moreover, under setting [2], the “Prothrombin time (indicator of hepatic function)” value is given as “extended”. For the same molecule, where the note is “oral once per day, 3 mg/kg acetaminophen on 7th day, newRNP^N m=13, FIGS. 19 to 22”, the “Toxicity by albumin quantity and AST, ALT and ALP enzyme levels” value is recorded as “extremely high toxicity”.

In the case of `CC(=O)Nc1ccc(O)cc1` [acetaminophen], the “Numbers of mice alive, After test” value (IGS, mouse, in vivo, po, 3 mg/kg, 1 day) was 2. Also, the “Share of mice that died within 1 day” value (acetaminophen alone, 3 mg/kg orally (group 2)) is “two thirds”. The “Superoxide dismutase (SOD) production” value (oral once per day, 3 mg/kg acetaminophen on 7th day, newRNP^N m=13, FIG. 18) is listed as “significant decrease”.

On to `CC(=O)N[C@@H](CS)C(=O)O` [acetylcysteine], for which, under setting [1], the “Numbers of mice alive, After test” value is on record as 4. For the same molecule, under setting [2], the “Prothrombin time (indicator of hepatic function)” value was “extended”.

The values above are taken from patent US10208152B2, “Poly(ethylene glycol)-b-poly(halomethylstyrene), derivative thereof, and method for producing same” (priority 2014, dated 2019).
